Assay results from patent publication US9248111B2, “Therapeutic approaches for treating parkinson's disease” (PHARNEXT, priority 2011, dated 2016).

Assays:
Assay type in all cases: cell-based, rat
[1] = test system: cortical neuronal cells; assay: Oxygen and glucose deprivation assay (in vitro model of ischemia), neurite network by MAP2; conditions: alone or combined
Method: B—Protective Effect Against Ischemia/Hypoxia Induced Neuronal Cell Death Rat Neuronal Cortical Cells Preparation
Cells are prepared as previously.
The neuroprotective effect of compounds is assessed by quantification of the neurite network using MAP2 antibody. Riluzole, a neuroprotective drug, (Riluteck®, 5 μM) is used as positive control.
After 10 days of neuron culture, candidate drugs are solved in culture medium (+0.1% DMSO) and then pre-incubated with neurons for 1 hour before the oxygen and glucose deprivation. One hour after candidate drug incubation, the medium is removed and fresh medium without glucose is added. This medium is composed by DMEM without glucose (Invitrogen) supplemented with 2% B27, 0.2 mM L-glutamine, 1% PS solution, 10 ng/ml of BDNF. The cells are transferred into an anaerobic incubator with 95% N2 and 5% CO2 at 37° C.
After 2 hours, 25 mM of D-Glucose will be added in culture medium and cells are transferred in classic incubator with 95% air/5% CO2 at 37° C. After 24 hours of oxygen glucose reperfusion, cells are fixed by a cold solution of alcohol/acetic acid during 5 minutes.
After permeabilization with saponin (Sigma), cells are blocked for 2 hours with PBS containing 10% goat serum, then the cells are incubated with mouse monoclonal primary antibody against MAP2 (MAP2, Sigma).
Nuclei of cells are labelled by a fluorescent marker (Hoechst solution, SIGMA). Six wells per condition are used to assess neuronal survival in 3 different cultures.
For each condition 2×10 pictures per well are taken and analyzed using InCell Analyzer TM 1000 (GE Healthcare) with 20× magnification.

[2] = test system: neuronal cortical cells; assay: Glutamate toxicity assay, neurite network (neurofilament immunostaining) of primary cortical neurons; conditions: alone or combined
Method: Glutamate toxicity is involved in the pathogenesis of Parkinson's disease. In this set of experiment, candidate compounds have been tested for their ability to prevent or reduce the toxic effects of glutamate toxicity on neuronal cells. The drugs are first tested individually, followed by assays of their combinatorial action.
The efficacy of drug combinations of the invention is assessed on primary cortical neuron cells.
Rat cortical neurons were cultured as described by Singer et al.. Briefly pregnant female rats of 15 days gestation were killed by cervical dislocation (Rats Wistar) and the foetuses were removed from the uterus. The cortex was removed and placed in ice-cold medium of Leibovitz (L15) containing 2% of Penicillin 10.000 U/ml and Streptomycin 10 mg/ml and 1% of bovine serum albumin (BSA). Cortices were dissociated by trypsin for 20 min at 37° C. (0.05%). The reaction was stopped by the addition of Dulbecco's modified Eagle's medium (DMEM) containing DNaseI grade II and 10% of foetal calf serum (FCS). Cells were then mechanically dissociated by 3 serial passages through a 10 ml pipette and centrifuged at 515 g for 10 min at +4° C. The supernatant was discarded and the pellet of cells was re-suspended in a defined culture medium consisting of Neurobasal supplemented with B27 (2%), L-glutamine (0.2 mM), 2% of PS solution and 10 ng/ml of BDNF. Viable cells were counted in a Neubauer cytometer using the trypan blue exclusion test. The cells were seeded at a density of 30 000 cells/well in 96 well-plates (wells were pre-coated with poly-L-lysine (10 μg/ml)) and were cultured at +37° C. in a humidified air (95%)/CO2 (5%) atmosphere.
After 12 days of neuron culture, drugs of the candidate combinations are solved in culture medium (+0.1% DMSO). Candidate combinations are then pre-incubated with neurons for 1 hour before the glutamate injury. One hour after incubation with, glutamate is added for 20 min, to a final concentration of 40 μM, in presence of candidate combinations, in order to avoid further drug dilutions. At the end of the incubation, medium is changed with medium with candidate combination but without glutamate. The culture is fixed 24 hours after glutamate injury. MK801 (dizocilpinehydrogen maleate, 77086-22-7-20 μM) is used as a positive control.
After permeabilization with saponin (Sigma), cells are blocked for 2 h with PBS containing 10% goat serum, then the cells are incubated with mouse monoclonal primary antibody against Neurofilament antibody (NF, Sigma).
Nuclei of cells are labeled by a fluorescent marker (Hoechst solution, SIGMA), and neurite network quantified. Six wells per condition are used to assess neuronal survival in 3 different cultures.

[3] = test system: dopaminergic neuronal cells; assay: 6-OHDA injury on mesencephalic dopaminergic neurons, number of TH positive neurons
Method: 6-hydroxydopamine (6-OHDA) is a neurotoxic drug which selectively initiates neuronal degeneration of dopaminergic neurons by generating reactive oxygen species and mitochondrial respiratory dysfunction which are thought to mirror events occurring in Parkinsonian brain. 6-OHDA toxicity is commonly used in vitro and in vivo to study Parkinsonism.
Rat dopaminergic neurons were cultured as described by Schinelli et al.. Pregnant female rats of 15 days gestation were killed by cervical dislocation (Rats Wistar; Janvier) and the foetuses removed from the uterus. The embryonic midbrains were removed and placed in ice-cold medium of Leibovitz (L15; PanBiotech) containing 2% of Penicillin-Streptomycin (PS; PanBiotech) and 1% of bovine serum albumin (BSA; PanBiotech). Only the ventral portions of the mesencephalic flexure were used for the cell preparations as this is the region of the developing brain rich in dopaminergic neurons. The midbrains were dissociated by trypsinisation for 20 min at 37° C. (Trypsin EDTA 1×; PanBiotech). The reaction is stopped by the addition of Dulbecco's modified Eagle's medium (DMEM; PanBiotech) containing DNAase I grade II (0.1 mg/ml; PanBiotech) and 10% of foetal calf serum (FCS; Invitrogen). Cells were then mechanically dissociated by 3 passages through a 10 ml pipette and centrifuged at 180×g for 10 min at +4° C. on a layer of BSA (3.5%) in L15 medium. The supernatant was discarded and the cells of pellet were re-suspended in a defined culture medium consisting of Neurobasal (Invitrogen) supplemented with B27 (2%; Invitrogen), L-glutamine (2 mM; PanBiotech) and 2% of PS solution and 10 ng/ml of Brain-derived neurotrophic factor (BDNF, PanBiotech) and 1 ng/ml of Glial-Derived Neurotrophic Factor (GDNF, PanBiotech). Viable cells were counted in a Neubauer cytometer using the trypan blue exclusion test. The cells were seeded at a density of 40 000 cells/well in 96 well-plates (pre-coated with poly-L-lysine (Greiner)) and are cultured at 37° C. in a humidified air (95%)/CO2 (5%) atmosphere. Half of the medium was changed every 2 days with fresh medium. Five to six percent of the neuronal cell population were dopaminergic neurons.
On day 6 of culture, the medium was removed and fresh medium was added, without or with 6-OHDA at the following concentrations: 20 μM during 48 hours diluted in control medium. Test compounds were pre-incubated for 1 h before the 6-OHDA application during 48 hours.
After 48 hours of intoxication with 6-OHDA, cells were fixed by a solution of 4% paraformaldehyde (Sigma) in PBS, pH=7.3 for 20 min at room temperature. The cells were washed again twice in PBS, and then permeabilized and non-specific sites were blocked with a solution of PBS containing 0.1% of saponin (Sigma) and 1% FCS for 15 min at room temperature. Then, cells were incubated with Monoclonal Anti-Tyrosine Hydroxylase antibody produced in mouse (TH, Sigma) at dilution of 1/1000 in PBS containing 1% FCS, 0.1% saponin, for 2 hours at room temperature.
For each condition, 2×10 pictures (representing ˜80% of total well area) per well were taken using InCell Analyzer™ 1000 (GE Healthcare) with 10× magnification. All images were taken in the same conditions. […]
Data are expressed in percentage of control conditions (no intoxication, no 6-OHDA=100%) in order to express the 6-OHDA injury. All values are expressed as mean+/−SEM (s.e. mean) of the 3 cultures (n=6 wells per condition per culture). […]

[4] = FIG. 6: cinacalcet 64 pM, mexiletine 25.6 pM
[5] = FIG. 1: cinacalcet 64 pM, mexiletine 25.6 pM
[6] = FIG. 5: sulfisoxazole 1.36 nM, torasemide 80 nM
[7] = FIG. 2: sulfisoxazole 6.8 nM, torasemide 400 nM
[8] = FIG. 4: baclofen 80 nM, acamprosate 0.32 nM
[9] = FIG. 12A: baclofen 32 nM alone, acamprosate 10 pM alone
[10] = FIG. 12B: baclofen 32 nM alone, acamprosate 4 pM alone
[11] = FIG. 3: baclofen 400 nM, acamprosate 1.6 nM

Cc1cccc(C)c1OCC(C)N (centres unmarked) [mexiletine]
protection against ischemic injury [1, 4]: No significant protection | prevention of glutamate intoxication [2, 5]: no significant effect

Cc1cccc(Nc2ccncc2S(=O)(=O)NC(=O)NC(C)C)c1 [torasemide]
protection against ischemic injury [1, 6]: no significant protection | prevention of glutamate intoxication [2, 7]: no significant effect

CC(=O)NCCCS(=O)(=O)O [acamprosate]
protection against ischemic injury [1, 8]: no significant protection | protection from 6-OHDA injury, single drugs [3, 9]: low effect | protection from 6-OHDA injury, single drugs [3, 10]: low effect | prevention of glutamate intoxication [2, 11]: no significant effect

C[C@@H](NCCCc1cccc(C(F)(F)F)c1)c1cccc2ccccc12 [cinacalcet]
protection against ischemic injury [1, 4]: No significant protection | prevention of glutamate intoxication [2, 5]: no significant effect

Cc1noc(NS(=O)(=O)c2ccc(N)cc2)c1C [sulfisoxazole]
protection against ischemic injury [1, 6]: no significant protection | prevention of glutamate intoxication [2, 7]: no significant effect

NCC(CC(=O)O)c1ccc(Cl)cc1 (centres unmarked) [baclofen]
protection against ischemic injury [1, 8]: no significant protection | protection from 6-OHDA injury, single drugs [3, 9]: low effect | protection from 6-OHDA injury, single drugs [3, 10]: low effect | prevention of glutamate intoxication [2, 11]: no significant effect

B1: BDNF: Brain-derived neurotrophic factor, used as a positive control (protein, UniProt P23560 129-247, looked up)
Neurotrophic factor BDNF: HSDPARRGELSVCDSISEWVTAADKKTAVDMSGGTVTVLEKVPVSKGQLKQYFYETKCNPMGYTKEGCRGIDKRHWNSQCRTTQSYVRALTMDSKKRIGWRFIRIDTSCVCTLTIKRGR
modifications: Neurotrophic factor BDNF
notes: Brain-derived neurotrophic factor, used as a positive control
protection of dopaminergic neurons from 6-OHDA injury ([3]; 1.85 nM, one hour pre-treatment, positive control): significantly protected
